Measurements published in PubChem BioAssay AID330 (DTP/NCI, 2004).
“And” between values parts separate entries of the source, which are not always exact repeats. Equal values may be shown once. Inconclusive results and toxic doses are left out. Rule for the calls: active = survival T/C of 150% or more; inactive = T/C below 125% in these data.

Tested on: P388 leukemia ip, CD2F1 mice, survival T/C
Test: NCI In Vivo Anticancer Drug Screen. Data for tumor model P388 Leukemia (intraperitoneal) in CD2F1 (CDF1) mice
Conditions: endpoint: median survival time, higher = longer survival
Procedure, shortened: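 Mice carrying the transplanted tumor received test compound or vehicle. Survival was recorded in each group, and the value is the treated-group measurement divided by that of the vehicle-treated control group.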

[1] = dose: 12.5 mg/kg/injection, schedule: Q01DX009 (ip), vehicle: Klucel (hydroxypropylcellulose) (HPC)
[2] = dose: 25.0 mg/kg/injection, schedule: Q01DX009 (ip), vehicle: Klucel (hydroxypropylcellulose) (HPC)
[3] = dose: 50.0 mg/kg/injection, schedule: Q01DX009 (ip), vehicle: Klucel (hydroxypropylcellulose) (HPC)
[4] = dose: 100.0 mg/kg/injection, schedule: Q01DX009 (ip), vehicle: Klucel (hydroxypropylcellulose) (HPC)
[5] = dose: 50.0 mg/kg/injection, schedule: Q01DX005 (ip), vehicle: Klucel (hydroxypropylcellulose) (HPC)
[6] = dose: 100.0 mg/kg/injection, schedule: Q01DX005 (ip), vehicle: Klucel (hydroxypropylcellulose) (HPC)
[7] = dose: 200.0 mg/kg/injection, schedule: Q01DX005 (ip), vehicle: Klucel (hydroxypropylcellulose) (HPC)
[8] = dose: 100.0 mg/kg/injection, schedule: Q01DX001 (ip), vehicle: saline
[9] = dose: 200.0 mg/kg/injection, schedule: Q01DX001 (ip), vehicle: saline
[10] = dose: 400.0 mg/kg/injection, schedule: Q01DX001 (ip), vehicle: saline
[11] = dose: 12.5 mg/kg/injection, schedule: Q01DX005 (ip), vehicle: Klucel (hydroxypropylcellulose) (HPC)
[12] = dose: 25.0 mg/kg/injection, schedule: Q01DX005 (ip), vehicle: Klucel (hydroxypropylcellulose) (HPC)
[13] = dose: 50.0 mg/kg/injection, schedule: Q01DX009 (ip), vehicle: saline
[14] = dose: 50.0 mg/kg/injection, schedule: Q01DX005 (ip), vehicle: saline with Tween-80
[15] = dose: 100.0 mg/kg/injection, schedule: Q01DX005 (ip), vehicle: saline with Tween-80
[16] = dose: 200.0 mg/kg/injection, schedule: Q01DX005 (ip), vehicle: saline with Tween-80

Measured: T/C

C/C=C/C#CC#C/C=C/C=C/CC
inactive: [1] 104 % of control | [2] 98 % of control | [3] 103 % of control | [4] 98 % of control

CC[N+]1(CC)CCCCC1
inactive: dose: 3.12 mg/kg/injection, schedule: Q01DX009 (ip), vehicle: saline 109 % of control | dose: 6.25 mg/kg/injection, schedule: Q01DX009 (ip), vehicle: saline 109 % of control | dose: 12.5 mg/kg/injection, schedule: Q01DX009 (ip), vehicle: saline 105 % of control

Cc1cnc(=O)[nH]c1NO
inactive: dose: 100.0 mg/kg/injection, schedule: Q04DX002 (ip), vehicle: Klucel (hydroxypropylcellulose) (HPC) 102 % of control | dose: 200.0 mg/kg/injection, schedule: Q04DX002 (ip), vehicle: Klucel (hydroxypropylcellulose) (HPC) 100 % of control | dose: 400.0 mg/kg/injection, schedule: Q04DX002 (ip), vehicle: Klucel (hydroxypropylcellulose) (HPC) 98 % of control

CN(C)CC(=O)Nc1ccc2c(c1)C(=O)c1ccc(NC(=O)CN(C)C)cc1C2=O
inactive: [5] 101 % of control | [6] 97 % of control | [7] 99 % of control

Nc1nc(N)nc(-c2cccnc2)n1
inactive: [8] 109 % of control | [9] 118 % of control | [10] 100 % of control

CCCCCC1=CC2(F)C(=O)NC(=O)NC12 (configuration not stated)
inactive: [11] 97 % of control | [12] 98 % of control | [5] 108 % of control | [6] 95 % of control

COc1ccc(-c2nc(C)nc3c2Cc2c(ccc4ccccc24)O3)cc1
inactive: [13] 98 % of control | dose: 100.0 mg/kg/injection, schedule: Q01DX009 (ip), vehicle: saline 102 % of control | dose: 200.0 mg/kg/injection, schedule: Q01DX009 (ip), vehicle: saline 102 % of control

CSCCCNCc1ccccc1
inactive: dose: 50.0 mg/kg/injection, schedule: Q01DX005 (ip), vehicle: saline 100 % of control | dose: 100.0 mg/kg/injection, schedule: Q01DX005 (ip), vehicle: saline 106 % of control

CC1=CC(=O)OC12CCCC(C)(C)C2 (configuration not stated)
inactive: [14] 106 % of control | [15] 104 % of control | [16] 106 % of control

O=C(c1ccc([N+](=O)[O-])cc1)c1cnc2nc(-c3ccccc3)c(-c3ccccc3)nn12
inactive: dose: 12.5 mg/kg/injection, schedule: Q01DX005 (ip), vehicle: saline with Tween-80 99 % of control | dose: 25.0 mg/kg/injection, schedule: Q01DX005 (ip), vehicle: saline with Tween-80 97 % of control | [14] 88 % of control and 93 % of control | [15] 89 % of control | [16] 96 % of control

CCN(CC)CCNC(=O)c1nn(-c2ccc(C)cc2)c2c1N(C)S(=O)(=O)c1ccccc1-2
inactive: dose: 100.0 mg/kg/injection, schedule: Q01DX001 (ip), vehicle: saline with Tween-80 100 % of control | dose: 200.0 mg/kg/injection, schedule: Q01DX001 (ip), vehicle: saline with Tween-80 97 % of control | dose: 400.0 mg/kg/injection, schedule: Q01DX001 (ip), vehicle: saline with Tween-80 97 % of control

O=c1[nH]c(=O)c2nc(-c3ccc4c(c3)OCO4)cnc2[nH]1
inactive: dose: 100.0 mg/kg/injection, schedule: Q04DX003 (ip), vehicle: lactic acid 93 % of control | dose: 200.0 mg/kg/injection, schedule: Q04DX003 (ip), vehicle: lactic acid 87 % of control

c1nc2c(o1)CCCC2
inactive: dose: 60.0 mg/kg/injection, schedule: Q01DX005 (ip), vehicle: saline with Tween-80 104 % of control | dose: 120.0 mg/kg/injection, schedule: Q01DX005 (ip), vehicle: saline with Tween-80 101 % of control | dose: 240.0 mg/kg/injection, schedule: Q01DX005 (ip), vehicle: saline with Tween-80 95 % of control

O=P(O)(O)SP(=O)(O)O.[Zn+2]
inactive: dose: 100.0 mg/kg/injection, schedule: Q04DX003 (ip), vehicle: Klucel (hydroxypropylcellulose) (HPC) 101 % of control | dose: 200.0 mg/kg/injection, schedule: Q04DX003 (ip), vehicle: Klucel (hydroxypropylcellulose) (HPC) 105 % of control

C=C(C)C1Cc2c(cc(OC)c3c(=O)c4cccc(O)c4oc23)O1 (configuration not stated)
inactive: dose: 2.5 mg/kg/injection, schedule: Q01DX009 (ip), vehicle: distilled water + alcohol 104 % of control | dose: 5.0 mg/kg/injection, schedule: Q01DX009 (ip), vehicle: distilled water + alcohol 101 % of control | dose: 10.0 mg/kg/injection, schedule: Q01DX009 (ip), vehicle: distilled water + alcohol 99 % of control

C1CC(CCC2CCNCC2)CCN1
inactive: dose: 25.0 mg/kg/injection, schedule: Q01DX009 (ip), vehicle: saline 96 % of control | [13] 97 % of control

COCCCNC(=O)c1nc2ccccc2c(=O)n1NC(=O)Cc1ccccc1
inactive: [14] 95 % of control | [15] 95 % of control | [16] 95 % of control

CCOC(=O)N1CCN(CCCCCCOc2ccc(C3CCCCC3)cc2)CC1
inactive: dose: 50.0 mg/kg/injection, schedule: Q01DX009 (ip), vehicle: saline with Tween-80 106 % of control | dose: 100.0 mg/kg/injection, schedule: Q01DX009 (ip), vehicle: saline with Tween-80 118 % of control | dose: 200.0 mg/kg/injection, schedule: Q01DX009 (ip), vehicle: saline with Tween-80 123 % of control

CCOC(=O)C(CCc1ccc(N(CCCl)CCCl)cc1)(NC(C)=O)C(=O)OCC
inactive: [1] 109 % of control | [2] 111 % of control | [3] 116 % of control

COC(=O)C1=C/C=C\CN(C(c2ccccc2)c2ccccc2)/C=C\1C(=O)OC
inactive: dose: 50.0 mg/kg/injection, schedule: Q01DX009 (ip), vehicle: suspension in saline 100 % of control | [8] 100 % of control | dose: 100.0 mg/kg/injection, schedule: Q01DX009 (ip), vehicle: suspension in saline 89 % of control | [9] 100 % of control | dose: 200.0 mg/kg/injection, schedule: Q01DX009 (ip), vehicle: suspension in saline 95 % of control | [10] 97 % of control | dose: 400.0 mg/kg/injection, schedule: Q01DX009 (ip), vehicle: suspension in saline 104 % of control

CC1=CC(=O)c2c(O)c3c(c(O)c2C1=O)C1C(O)C(C3=O)C23C(=O)c4c(O)c(C)cc(O)c4C(O)=C2C(=O)CC(O)C13 (configuration not stated)
inactive: dose: 1.5 mg/kg/injection, schedule: Q01DX005 (ip), vehicle: Klucel (hydroxypropylcellulose) (HPC) 101 % of control | dose: 3.0 mg/kg/injection, schedule: Q01DX005 (ip), vehicle: Klucel (hydroxypropylcellulose) (HPC) 115 % of control | dose: 6.0 mg/kg/injection, schedule: Q01DX005 (ip), vehicle: Klucel (hydroxypropylcellulose) (HPC) 115 % of control | dose: 12.0 mg/kg/injection, schedule: Q01DX005 (ip), vehicle: Klucel (hydroxypropylcellulose) (HPC) 113 % of control | [11] 108 % of control | [12] 105 % of control | [5] 105 % of control

COc1cccc(/C=C2\CCc3ccccc3C2=O)c1
inactive: [3] 100 % of control | [4] 99 % of control | dose: 200.0 mg/kg/injection, schedule: Q01DX009 (ip), vehicle: Klucel (hydroxypropylcellulose) (HPC) 106 % of control

CCOC(=O)/C=C(/C)Nc1ccc2c(c1)OCO2
inactive: [5] 103 % of control | [6] 110 % of control | [7] 111 % of control
